In brackets after ≈: the same amount, converted by molar mass. Where two headings read alike, the source gives them in different places. Starred links: 1 amine or outer side, 2 acyl side, 3 side chain; linkers in the order of their positions; H or OH if unused. Non-standard residues stand in square brackets, D forms with d. Residues, ends and D or L forms follow the SMILES beside them. Groups on a side chain read outwards from the residue. *: point of attachment. γGlu = O=C(O)[C@H](CCC(=O)[*:2])N[*:1]; Palmitoyl = CCCCCCCCCCCCCCCC(=O)*; AEEA = NCCOCCOCC(=O)O
Assays:
GLP-1R = GLP-1R (Homo sapiens, UniProt P43220); assay: GLP-1 receptor-mediated cAMP induction, luciferase reporter gene antagonism assay; format: cell-based; set-up: host or cells: HEK 293; conditions: antagonism of 0.05 nM GLP-1, HEK 293 cells
Sequence of GLP-1R (P43220 24-463): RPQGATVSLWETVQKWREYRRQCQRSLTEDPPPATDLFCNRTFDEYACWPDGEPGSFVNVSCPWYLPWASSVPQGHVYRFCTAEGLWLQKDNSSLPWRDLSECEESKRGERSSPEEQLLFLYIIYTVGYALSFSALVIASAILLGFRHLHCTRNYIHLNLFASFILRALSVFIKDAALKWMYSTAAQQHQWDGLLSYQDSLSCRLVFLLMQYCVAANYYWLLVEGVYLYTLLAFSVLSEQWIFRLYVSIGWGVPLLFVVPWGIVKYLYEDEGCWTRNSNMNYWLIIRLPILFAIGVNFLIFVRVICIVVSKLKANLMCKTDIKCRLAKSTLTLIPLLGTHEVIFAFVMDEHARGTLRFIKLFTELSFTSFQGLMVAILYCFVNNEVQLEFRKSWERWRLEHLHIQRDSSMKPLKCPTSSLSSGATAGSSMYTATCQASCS
Outline: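 HEK 293 cells cotransfected with human GLP-1 receptor and CRE-luciferase were serum-deprived 16 h, then given serial peptide dilutions followed by 0.05 nM GLP-1 and incubated 5 h at 37° C.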

[1] = pH 7.7, Solubility [mg/mL] 80 mM AmBicarb pH7.7
[2] = pH 7.7, Solubility 80 mM AmeBicarb pH7.7
[3] = Table 3, amino acid substitution variants of Jant4-K40, read-out: Bioactivity IC50

With CCCCCCCCCCCCCCCC(=O)NCCCC[C@H](NC(=O)[C@H](CO)NC(=O)[C@@H]1CCCN1C(=O)[C@@H]1CCCN1C(=O)[C@@H]1CCCN1C(=O)[C@H](C)NC(=O)CNC(=O)[C@H](CO)NC(=O)[C@H](CO)NC(=O)[C@@H]1CCCN1C(=O)CNC(=O)CNC(=O)C(C)(C)NC(=O)[C@H](CCCCN)NC(=O)[C@H](CC(C)C)NC(=O)[C@H](Cc1c[nH]c2ccccc12)NC(=O)[C@H](C)NC(=O)[C@@H](NC(=O)[C@H](Cc1ccccc1)NC(=O)[C@H](CCC(=O)O)NC(=O)[C@H](CCCNC(=N)N)NC(=O)[C@@H](NC(=O)[C@H](C)NC(=O)[C@H](CCC(N)=O)NC(=O)[C@H](CCC(=O)O)NC(=O)[C@H](CCC(=O)O)NC(=O)[C@H](CC(C)C)NC(=O)[C@H](Cc1ccc(O)cc1)NC(=O)[C@H](CO)NC(=O)[C@H](CO)NC(=O)[C@@H](NC(=O)[C@@H](N)CC(=O)O)C(C)C)C(C)C)[C@@H](C)CC)C(N)=O [SEQ ID NO: 43] the solubility (physchem; [1]) was 18.9 mg/mL (≈ 5.21 mM), the solubility (physchem; pH 7.7, Solubility [mg/mL] PBS pH7.7) was 0.2 mg/mL (≈ 0.0552 mM) and the IC50 (GLP-1R; Table 4, Aib variants of 9-40am Jant4 K40[C16], read-out: Bioactivity IC50) was 13 nM.

CCCCCCCCCCCCCCCC(=O)N[C@@H](CCC(=O)NCCOCCOCC(=O)NCCCC[C@H](NC(=O)[C@H](CO)NC(=O)[C@@H]1CCCN1C(=O)[C@@H]1CCCN1C(=O)[C@@H]1CCCN1C(=O)[C@H](C)NC(=O)CNC(=O)[C@H](CO)NC(=O)[C@H](CO)NC(=O)[C@@H]1CCCN1C(=O)CNC(=O)CNC(=O)[C@H](CCCNC(=N)N)NC(=O)[C@@H](NC(=O)[C@H](CC(C)C)NC(=O)[C@H](Cc1c[nH]c2ccccc12)NC(=O)[C@H](CCC(=O)O)NC(=O)[C@@H](NC(=O)[C@H](Cc1ccccc1)NC(=O)[C@H](CCC(=O)O)NC(=O)[C@H](CCCNC(=N)N)NC(=O)[C@@H](NC(=O)[C@H](C)NC(=O)[C@H](CCC(N)=O)NC(=O)[C@H](CCC(=O)O)NC(=O)[C@H](CCC(=O)O)NC(=O)[C@H](CC(C)C)NC(=O)[C@H](Cc1ccc(O)cc1)NC(=O)[C@H](CCCNC(=N)N)NC(=O)[C@H](CO)NC(=O)[C@@H](NC(=O)[C@@H](N)CC(=O)O)C(C)C)C(C)C)[C@@H](C)CC)C(C)C)C(=O)O)C(=O)O [compound 16] (H-DVSRYLEEQAVREFIEWLVRGGPSSGAPPPSK([AEEA-γGlu-Palmitoyl])-OH; N-terminus assumed) showed a solubility (physchem; [2]) of over 20 mg/mL and an IC50 (GLP-1R; [3]) of 18 nM.

With CCCCCCCCCCCCCCCC(=O)N[C@@H](CCC(=O)NCCOCCOCC(=O)NCCOCCOCC(=O)NCCCC[C@H](NC(=O)[C@H](CO)NC(=O)[C@@H]1CCCN1C(=O)[C@@H]1CCCN1C(=O)[C@@H]1CCCN1C(=O)[C@H](C)NC(=O)CNC(=O)[C@H](CO)NC(=O)[C@H](CO)NC(=O)[C@@H]1CCCN1C(=O)CNC(=O)CNC(=O)[C@H](CCCCN)NC(=O)[C@@H](NC(=O)[C@H](CC(C)C)NC(=O)[C@H](Cc1c[nH]c2ccccc12)NC(=O)[C@H](C)NC(=O)[C@@H](NC(=O)[C@H](Cc1ccccc1)NC(=O)[C@H](CCC(=O)O)NC(=O)[C@H](CCCNC(=N)N)NC(=O)[C@@H](NC(=O)[C@H](C)NC(=O)[C@H](CCC(N)=O)NC(=O)[C@H](CCC(=O)O)NC(=O)[C@H](CCC(=O)O)NC(=O)[C@H](CC(C)C)NC(=O)[C@H](Cc1ccc(O)cc1)NC(=O)[C@H](CO)NC(=O)[C@H](CO)NC(=O)[C@@H](NC(=O)[C@@H](N)CC(=O)O)C(C)C)C(C)C)[C@@H](C)CC)C(C)C)C(N)=O)C(=O)O [compound 48] (H-DVSSYLEEQAVREFIAWLVKGGPSSGAPPPSK([AEEA-AEEA-γGlu-Palmitoyl])-NH2; N-terminus assumed) the solubility (physchem; [1]) was 9 mg/mL (≈ 2.22 mM) and the IC50 (GLP-1R; Table 2, C16 linker variants of 9-40amide Jant4 K40[X], read-out: Biactivity IC50) was 9 nM.

CCCCCCCCCCCCCCCC(=O)NCCCC[C@H](NC(=O)[C@H](CO)NC(=O)[C@@H]1CCCN1C(=O)[C@@H]1CCCN1C(=O)[C@@H]1CCCN1C(=O)[C@H](C)NC(=O)CNC(=O)[C@H](CO)NC(=O)[C@H](CO)NC(=O)[C@@H]1CCCN1C(=O)CNC(=O)CNC(=O)[C@H](CCCCN)NC(=O)[C@@H](NC(=O)[C@H](CC(C)C)NC(=O)[C@H](Cc1c[nH]c2ccccc12)NC(=O)[C@H](C)NC(=O)[C@@H](NC(=O)[C@H](Cc1ccccc1)NC(=O)[C@H](CCC(=O)O)NC(=O)[C@H](CCCNC(=N)N)NC(=O)[C@H](NC(=O)[C@H](C)NC(=O)[C@H](CCC(N)=O)NC(=O)[C@H](CCC(=O)O)NC(=O)[C@H](CCC(=O)O)NC(=O)[C@H](CC(C)C)NC(=O)[C@H](Cc1ccc(O)cc1)NC(=O)[C@H](CO)NC(=O)[C@H](CO)NC(=O)[C@@H](NC(=O)[C@@H](N)CC(=O)O)C(C)C)C(C)C)[C@@H](C)CC)C(C)C)C(N)=O [compound 50] (H-DVSSYLEEQA[dV]REFIAWLVKGGPSSGAPPPSK(Palmitoyl)-NH2) showed a solubility (physchem; pH 7.7, Solubility [mg/mL] 80 mM/AmBicarb pH7.7) of over 20 mg/mL and an IC50 (GLP-1R; Table 5, d-AA variants of 9-40am Jant4 K40[C16], read-out: Bioactivity KC50) of 124 nM.

CCCCCCCCCCCCCCCC(=O)NCCCC[C@H](NC(=O)[C@H](CO)NC(=O)[C@@H]1CCCN1C(=O)[C@@H]1CCCN1C(=O)[C@@H]1CCCN1C(=O)[C@H](C)NC(=O)CNC(=O)[C@H](CO)NC(=O)[C@H](CO)NC(=O)[C@@H]1CCCN1C(=O)CNC(=O)CNC(=O)[C@H](CCCNC(=N)N)NC(=O)[C@@H](NC(=O)[C@H](CC(C)C)NC(=O)[C@H](Cc1c[nH]c2ccccc12)NC(=O)[C@H](C)NC(=O)[C@@H](NC(=O)[C@H](Cc1ccccc1)NC(=O)[C@H](CCC(=O)O)NC(=O)[C@H](CCCNC(=N)N)NC(=O)[C@@H](NC(=O)[C@H](C)NC(=O)[C@H](CCC(N)=O)NC(=O)[C@H](CCC(=O)O)NC(=O)[C@H](CCC(=O)O)NC(=O)[C@H](CC(C)C)NC(=O)[C@H](Cc1ccc(O)cc1)NC(=O)[C@H](CO)NC(=O)[C@H](CO)NC(=O)[C@@H](NC(=O)[C@@H](N)CC(=O)O)C(C)C)C(C)C)[C@@H](C)CC)C(C)C)C(N)=O [compound 69] (H-DVSSYLEEQAVREFIAWLVRGGPSSGAPPPSK(Palmitoyl)-NH2) gave a solubility (physchem; [2]) of 13.7 mg/mL (≈ 3.73 mM) and an IC50 (GLP-1R; [3]) of 16 nM.

CCCCCCCCCCCCCCCC(=O)NCCCC[C@H](NC(=O)[C@H](CO)NC(=O)[C@@H]1CCCN1C(=O)[C@@H]1CCCN1C(=O)[C@@H]1CCCN1C(=O)[C@H](C)NC(=O)CNC(=O)[C@H](CO)NC(=O)[C@H](CO)NC(=O)[C@@H]1CCCN1C(=O)CNC(=O)CNC(=O)[C@H](CCCNC(=N)N)NC(=O)[C@@H](NC(=O)[C@H](CC(C)C)NC(=O)[C@H](Cc1c[nH]c2ccccc12)NC(=O)[C@H](CCC(=O)O)NC(=O)[C@@H](NC(=O)[C@H](Cc1ccccc1)NC(=O)[C@H](CCC(=O)O)NC(=O)[C@H](CCCNC(=N)N)NC(=O)[C@@H](NC(=O)[C@H](C)NC(=O)[C@H](CCC(N)=O)NC(=O)[C@H](CCC(=O)O)NC(=O)[C@H](CCC(=O)O)NC(=O)[C@H](CC(C)C)NC(=O)[C@H](Cc1ccc(O)cc1)NC(=O)[C@H](CO)NC(=O)[C@H](CO)NC(=O)[C@@H](NC(=O)[C@@H](N)CC(=O)O)C(C)C)C(C)C)[C@@H](C)CC)C(C)C)C(N)=O [compound 70] (H-DVSSYLEEQAVREFIEWLVRGGPSSGAPPPSK(Palmitoyl)-NH2) showed a solubility (physchem; [2]) of over 20 mg/mL.

With CCCCCCCCCCCCCCCC(=O)NCCCC[C@H](NC(=O)[C@H](CO)NC(=O)[C@@H]1CCCN1C(=O)[C@@H]1CCCN1C(=O)[C@@H]1CCCN1C(=O)[C@H](C)NC(=O)CNC(=O)[C@H](CO)NC(=O)[C@H](CO)NC(=O)[C@@H]1CCCN1C(=O)CNC(=O)CNC(=O)[C@H](CCCNC(=N)N)NC(=O)[C@@H](NC(=O)[C@H](CC(C)C)NC(=O)[C@H](Cc1c[nH]c2ccccc12)NC(=O)[C@H](C)NC(=O)[C@@H](NC(=O)[C@H](Cc1ccccc1)NC(=O)[C@H](CCC(=O)O)NC(=O)[C@H](CCCNC(=N)N)NC(=O)[C@@H](NC(=O)[C@H](C)NC(=O)[C@H](CCC(N)=O)NC(=O)[C@H](CCC(=O)O)NC(=O)[C@H](CCC(=O)O)NC(=O)[C@H](CC(C)C)NC(=O)[C@H](Cc1ccc(O)cc1)NC(=O)[C@H](CCCNC(=N)N)NC(=O)[C@H](CO)NC(=O)[C@@H](NC(=O)[C@@H](N)CC(=O)O)C(C)C)C(C)C)[C@@H](C)CC)C(C)C)C(N)=O [compound 73] (H-DVSRYLEEQAVREFIAWLVRGGPSSGAPPPSK(Palmitoyl)-NH2; N-terminus assumed) the solubility (physchem; [2]) was under 0.1 mg/mL and the IC50 (GLP-1R; [3]) was 27 nM.

CCCCCCCCCCCCCCCC(=O)N[C@@H](CCC(=O)NCCOCCOCC(=O)NCCCC[C@H](NC(=O)[C@H](CO)NC(=O)[C@@H]1CCCN1C(=O)[C@@H]1CCCN1C(=O)[C@@H]1CCCN1C(=O)[C@H](C)NC(=O)CNC(=O)[C@H](CO)NC(=O)[C@H](CO)NC(=O)[C@@H]1CCCN1C(=O)CNC(=O)CNC(=O)[C@@H](NC(=O)[C@H](CCCNC(=N)N)NC(=O)[C@H](CC(C)C)NC(=O)[C@H](Cc1c[nH]c2ccccc12)NC(=O)[C@H](CCC(=O)O)NC(=O)[C@@H](NC(=O)[C@H](Cc1ccccc1)NC(=O)[C@H](CCC(=O)O)NC(=O)[C@H](CCCNC(=N)N)NC(=O)[C@@H](NC(=O)[C@H](C)NC(=O)[C@H](CCC(N)=O)NC(=O)[C@H](CCC(=O)O)NC(=O)[C@H](CCC(=O)O)NC(=O)[C@H](CC(C)C)NC(=O)[C@H](Cc1ccc(O)cc1)NC(=O)[C@H](CO)NC(=O)[C@H](CO)NC(=O)[C@@H](NC(=O)[C@@H](N)CC(=O)O)C(C)C)C(C)C)[C@@H](C)CC)C(C)C)C(=O)O)C(=O)O [compound 79] showed a solubility (physchem; [2]) of over 20 mg/mL.
